# Test results as given in patent US20230137092A1, “Composition and Method for the Treatment and Prevention of Cardiac, Pulmonary, Dermal, and Renal Fibrosis” (EMERALD HEALTH PHARMACEUTICALS INC., priority 2020, published 2023).
# Assays:
# [1] = test system: Ang II-induced renal fibrosis; assay: Ang II-induced renal fibrosis, preventive model, Sirius Red; type: in vivo, mouse; details: Ang II 1.0 mg kg^- min^- two weeks, 20 mg/kg oral gavage
# Description: Ang II is the main peptide of the renin angiotensin system and a renal growth factor, inducing hyperplasia/hypertrophy depending on the cell type, and it induces renal fibrosis. Renal fibrosis was induced in mice by infusion of Ang II (1.0 mg kg^− min^−) for two weeks. The treatment with the compound of Formula (VIII) by oral gavage was the same as describe in Example 2. After two weeks of treatment, the mice were sacrificed under ether anesthesia. Kidney samples were collected and fixed in 4% paraformaldehyde and embedded in paraffin. The paraffin sections (5 μm) were stained with Sirius Red for evaluation of fibrosis. Subcutaneous Ang II infusion induced a significant increase of collagen content and in the mice treated with compound, the induction of fibrosis in the kidney is prevented (FIG. 10).
# [2] = test system: cardiac myofibroblast proliferation; assay: Ki67 immunostaining of left ventricle sections (myofibroblast proliferation), Ang II preventive model; type: in vivo, mouse; details: two weeks after Ang II infusion; ###p<0.001 versus Ang II group
# Description: Proliferation of fibroblast is an important event of Ang II-induced fibrosis and plays an important role in cardiac fibrosis. […] Ki 67 is a protein that is encoded by the MKI67 gene and is a cellular marker for proliferation. Cardiac tissue sections ([…]) were deparaffinized and boiled for 10 minutes in sodium citrate buffer (10 mM, pH 6.0) (Sigma-Aldrich, Madrid, Spain) for antigen retrieval. The sections were then incubated in a PBS washing buffer containing 0.1% Triton X-100 (Sigma-Aldrich, Madrid, Spain) three times for 10 minutes. Nonspecific binding was blocked with 3% bovine serum albumin (BSA) (Sigma-Aldrich, Madrid, Spain). The sections were incubated overnight at 4° C. with Ki 67 antibody (1:100 dilution, ab15580, Abcam, Cambridge, UK). After three washes for 10 minutes each in wash buffer, slides were incubated with secondary antibody anti-rabbit Texas Red (1:100 dilution, #A-6399, Thermo Fischer Scientific, Waltham, Mass., USA) for 1 hour at room temperature in the dark. […] All images were acquired using a spectral confocal laser-scanning microscope LSM710, (Zeiss, Jena, Germany) with a 63× Plan-Apochromat oil immersion lens and quantified in 10-15 randomly chosen fields using ImageJ software (rsb.info.nih.gov/ij/).
# hICF cells = assay: Real-time PCR of IL1b, IL6, Col1A2 and CCL2 mRNA in hICF; type: cell-based, human; details: induced by Ang II or TGFb in hICF cells
# Description: hICF (5×10^4 cells/cm^2) were preincubated with Compound of Formula (VIII), stimulated with Ang II for either 2 hours or 24 hours and total RNA was extracted using High Pure Isolation Kit (Roche Diagnostic, Switzerland). Total RNA (1 μg) was retrotranscribed using the iScript™ cDNA Synthesis Kit (Bio-Rad) and the cDNA analyzed using a CFX96 Real-Time PCR Detection System (Bio-Rad) by real-time PCR using the iQ™ SYBR Green Supermix (Bio-Rad). Human HPRT was used for in vitro studies to standardize the mRNA expression levels in each sample. Expression levels were calculated using the 2-ΔΔCt method. Compound of Formula (VIII) inhibited the mRNA expression of IL1b, IL6, Col1A2 and CCL2, induced by Ang II or TGFb in hICF cells (FIG. 17).
# [3] = test system: human immortalized cardiac fibroblasts (hICF); assay: Fibroblast differentiation into myofibroblasts: α-SMA expression in hICF; type: cell-based; details: hICF treated with TGF-β or Ang II; pretreatment with compound
# From the text: The profibrotic activity of Ang II on cardiac fibroblasts in vitro and in vivo has been extensively documented (H. H. Sigusch et al., 1996, Cardiovasc Res, 31:546-554). To study myofibroblast differentiation in vitro, immortalized cardiac fibroblasts (hICF) were stained with for α-SMA expression, a specific marker for myofibroblasts differentiation. Immortalized primary human cardiac fibroblasts (hICF) with SV40 Large T antigen were obtained from Innoprot SL (Derio, Spain) and cultured in low passages (<5 passages). The cells were maintained in a humidified atmosphere at 37° C. containing 5% CO2, 10% fetal bovine serum (FBS) and 1% (v/v) penicillin/streptomycin in Fibroblast Medium-2 (P60108-2, Innoprot, Derio, Spain). Ang II was purchased from Sigma-Aldrich Co (A9525, Sigma, Madrid, Spain) and TGFb1 (Transforming Growth Factor-b)-1 (10 ng/mL) was obtained from ImmunoTools GmbH (Friesoythe, Germany). Both TGF-β and Ang II induced α-SMA protein expression in cultured hICF and pretreatment with compound of Formula (VIII) decreased α-SMA expression. The differentiation to myofibroblast was associated with morphological changes of cellular hypertrophy.
# [4] = test system: Ang II-induced pulmonary fibrosis; assay: Ang II therapeutic model: lung fibrosis, Masson's trichrome, Ashcroft score; type: in vivo, mouse; details: Ang II four weeks, 20 mg/kg oral last two weeks, ###p<0.001 versus Ang II group
# Description: Lung fibrosis was induced in mice by infusion of Ang II (500 ng kg^− min^−) for four weeks. The treatment with the compound of Formula (VIII) by oral gavage was the same as describe in Example 9. After two weeks of treatment, the mice were sacrificed under ether anesthesia. Lung samples were collected and fixed in 4% paraformaldehyde and embedded in paraffin. The paraffin sections (5 μm) were stained with Masson's trichrome (Merck Millipore, Darmstadt, Germany) for evaluation of fibrosis. Three-four random fields of each lung biopsy were photographed, digitalized using a Leica DFC420c camera and analyzed using Image J software in a blinded manner by two independent observers. The Ashcroft score was used to determine the degree of fibrosis in lung specimens as previously described (Ashcroft T et al., 1988, Clin. Pathol., 41:467-470; Hubner R H et al., 2008, Biotechniques, 44:507-511). Subcutaneous Ang II infusion induced pulmonary fibrosis which is prevented with compound (FIG. 15).
compound,measurement,setting,value
C=C(C)C1CCC(C)=C[C@H]1C1=C(O)C(=O)C(CCCCC)=C(NCc2ccccc2)C1=O (some centres unmarked) [Formula (VIII)],induction of fibrosis in the kidney (collagen content),[1],prevented
same,myofibroblast proliferation in left ventricle (Ki67-positive cells),[2],reduced
same,CCL2 mRNA expression,hICF cells,inhibited
same,Col1A2 mRNA expression,hICF cells,inhibited
same,IL1b mRNA expression,hICF cells,inhibited
same,IL6 mRNA expression,hICF cells,inhibited
same,α-SMA expression,[3],decreased
same,lung fibrosis (Ashcroft score),[4],reduced
